row,Compound,melting point [°C]
1,"CN(C)c1cc2c(cc1C#N)NC(=O)CC(c1cccc(C#N)c1)=N2 [Example 91, 2-(3-Cyano-phenyl)-8-dimethylamino-4-oxo-4,5-dihydro-3H-benzo[b][1,4]diazepine-7-carbonitrile]",251
2,"CCCN(C)c1cc2c(cc1C)NC(=O)CC(c1cccc(-n3nncc3CO)c1)=N2 [Example 93, 4-[3-(5-Hydroxymethyl-[1,2,3]triazol-1-yl)-phenyl]-8-methyl-7-(methyl-propyl-amino)-1,3-dihydro-benzo[b][1,4]diazepin-2-one]",186
3,"CCN(C)c1cc2c(cc1C)NC(=O)CC(c1cccc(-n3nncc3CO)c1)=N2 [Example 94, 7-(Ethyl-methyl-amino)-4-[3-(5-hydroxymethyl-[1,2,3]triazol-1-yl)-phenyl]-8-methyl-1,3-dihydro-benzo[b][1,4]diazepin-2-one]",207
4,"CC(C)N(C)c1cc2c(cc1Cl)NC(=O)CC(c1cccc(-n3nncc3CO)c1)=N2 [Example 96, 8-Chloro-4-[3-(5-hydroxymethyl-[1,2,3]triazol-1-yl)-phenyl]-7-(isopropyl-methyl-amino)-1,3-dihydro-benzo[b][1,4]diazepin-2-one]",207
5,"Cc1cc(-c2cccc(C3=Nc4cc(N(C)CC(C)C)c(Cl)cc4NC(=O)C3)c2)on1 [Example 102, 8-Chloro-7-(isobutyl-methyl-amino)-4-[3-(3-methyl-isoxazol-5-yl)-phenyl]-1,3-dihydro-benzo[b][1,4]diazepin-2-one]",194
6,"N#Cc1cc2c(cc1N1CCCC1)N=C(c1cccc(-n3nncc3CO)c1)CC(=O)N2 [Example 103, 2-[3-(5-Hydroxymethyl-[1,2,3]triazol-1-yl)-phenyl]-4-oxo-8-pyrrolidin-1-yl-4,5-dihydro-3H-benzo[b][1,4]diazepine-7-carbonitrile]",241
7,"Cc1cc(-c2cccc(C3=Nc4cc(N5CCCC5)c(C#N)cc4NC(=O)C3)c2)on1 [Example 104, 2-[3-(3-Methyl-isoxazol-5-yl)-phenyl]-4-oxo-8-pyrrolidin-1-yl-4,5-dihydro-3H-benzo[b][1,4]diazepine-7-carbonitrile]",267
8,"CCCN(C)c1cc2c(cc1C#N)NC(=O)CC(c1cccc(-n3nncc3CO)c1)=N2 [Example 105, 2-[3-(5-Hydroxymethyl-[1,2,3]triazol-1-yl)-phenyl]-8-(methyl-propyl-amino)-4-oxo-4,5-dihydro-3H-benzo[b][1,4]diazepine-7-carbonitrile]",221
9,"CCCN(C)c1cc2c(cc1C#N)NC(=O)CC(c1cccc(-c3cc(C)no3)c1)=N2 [Example 106, 2-[3-(3-Methyl-isoxazol-5-yl)-phenyl]-8-(methyl-propyl-amino)-4-oxo-4,5-dihydro-3H-benzo[b][1,4]diazepine-7-carbonitrile]",133
10,"Cc1cc(-c2cccc(C3=Nc4cc(N(C)C(C)C)c(C#N)cc4NC(=O)C3)c2)on1 [Example 108, 8-(Isopropyl-methyl-amino)-2-[3-(3-methyl-isoxazol-5-yl)-phenyl]-4-oxo-4,5-dihydro-3H-benzo[b][1,4]diazepine-7-carbonitrile]",197
11,"CC(C)N(C)c1cc2c(cc1C#N)NC(=O)CC(c1cccc(-n3nncc3CO)c1)=N2 [Example 109, 2-[3-(5-Hydroxymethyl-[1,2,3]triazol-1-yl)-phenyl]-8-(isopropyl-methyl-amino)-4-oxo-4,5-dihydro-3H-benzo[b][1,4]diazepine-7-carbonitrile]",206
12,"Cc1cc(-c2cccc(C3=Nc4cc(N(C)CC(C)C)c(C#N)cc4NC(=O)C3)c2)on1 [Example 110, 8-(Isobutyl-methyl-amino)-2-[3-(3-methyl-isoxazol-5-yl)-phenyl]-4-oxo-4,5-dihydro-3H-benzo[b][1,4]diazepine-7-carbonitrile]",170
13,"Cc1cc(-c2cccc(C3=Nc4cc(N5CCCCC5)c(C#N)cc4NC(=O)C3)c2)on1 [Example 112, 2-[3-(3-Methyl-isoxazol-5-yl)-phenyl]-4-oxo-8-piperidin-1-yl-4,5-dihydro-3H-benzo[b][1,4]diazepine-7-carbonitrile]",246

# The remaining lines, values ahead:
row,melting point [°C],Compound
1,168 to 170,"CN(C)c1cc2c(cc1C(F)(F)F)NC(=O)CC(c1cccc(-n3nncc3CNCC(F)(F)F)c1)=N2 [Example 76, 7-Dimethylamino-4-(3-{5-[(2,2,2-trifluoro-ethylamino)methyl]-[1,2,3]triazol-1-yl}-phenyl)8-trifluoromethyl-1,3-dihydro-benzo[b][1,4]diazepin-2-one]"
2,212,"CN(CC1CC1)c1cc2c(cc1C(F)(F)F)NC(=O)CC(c1cccc(-n3nncc3CO)c1)=N2 [Example 77, 7-(Cyclopropylmethyl-methyl-amino)-4-[3-(5-hydroxymethyl-[1,2,3]triazol-1-yl)-phenyl]-8-trifluoromethyl-1,3-dihydro-benzo[b][1,4]diazepin-2-one]"
3,135,"CN(C)c1cc2c(cc1C(F)(F)F)NC(=O)CC(c1cccc(-n3cc(CNC4CC4)cn3)c1)=N2 [Example 79, 4-[3-(4-Cyclopropylaminomethyl-pyrazol-1-yl)-phenyl]-7-dimethylamino-8-trifluoromethyl-1,3-dihydro-benzo[b][1,4]diazepin-2-one]"
4,35 to 46,"CN(CC1CC1)c1cc2c(cc1C(F)(F)F)NC(=O)CC(c1cccc(-n3nncc3CNC3CC3)c1)=N2 [Example 80, 4-[3-(5-Cyclopropylaminomethyl-[1,2,3]triazol-1-yl)-phenyl]-7-(cyclopropylmethyl-methyl-amino)-8-trifluoromethyl-1,3-dihydro-benzo[b][1,4]diazepin-2-one]"
5,138,"CN(C)c1cc2c(cc1C(F)(F)F)NC(=O)CC(c1cccc(-c3ccnn3CCO)c1)=N2 [Example 81, 7-Dimethylamino-4-{3-[2-(2-hydroxy-ethyl)-2H-pyrazol-3-yl]-phenyl}-8-trifluoromethyl-1,3-dihydro-benzo[b][1,4]diazepin-2-one]"
6,200 to 205,"CN(c1cc2c(cc1C(F)(F)F)NC(=O)CC(c1ccnc(C#N)c1)=N2)C1CC1 [Example 83, 4-[8-(Cyclopropyl-methyl-amino)-4-oxo-7-trifluoromethyl-4,5-dihydro-3H-benzo[b][1,4]diazepin-2-yl]-pyridine-2-carbonitrile]"
7,172 to 175,"CN(C)c1cc2c(cc1C(F)(F)F)NC(=O)CC(c1cccc(-n3nncc3CCO)c1)=N2 [Example 85, 7-Dimethylamino-4-{3-[5-(2-hydroxy-ethyl)-[1,2,3]triazol-1-yl]-phenyl}-8-trifluoromethyl-1,3-dihydro-benzo[b][1,4]diazepin-2-one]"
8,228 to 229,"CN(C)c1cc2c(cc1C(F)(F)F)NC(=O)CC(c1cccc(-n3nccc3CO)c1)=N2 [Example 86, 7-Dimethylamino-4-[3-(5-hydroxymethyl-pyrazol-1-yl)-phenyl]-8-trifluoromethyl-1,3-dihydro-benzo[b][1,4]diazepin-2-one]"
9,210 to 212,"CN(C)c1cc2c(cc1C(F)(F)F)NC(=O)CC(c1cccc(-n3ccnn3)c1)=N2 [Example 87, 7-Dimethylamino-4-(3-[1,2,3]triazol-1-yl-phenyl)-8-trifluoromethyl-1,3-dihydro-benzo[b][1,4]diazepin-2-one]"
10,257,"Cc1cc2c(cc1N(C)C)N=C(c1cccc(C#N)c1)CC(=O)N2 [Example 89, 3-(8-Dimethylamino-7-methyl-4-oxo-4,5-dihydro-3H-benzo[b][1,4]diazepin-2-yl)-benzonitrile]"
11,190,"Cc1cc2c(cc1N(C)C)N=C(c1cccc(-n3nncc3CO)c1)CC(=O)N2 [Example 90, 7-Dimethylamino-4-[3-(5-hydroxymethyl-[1,2,3]triazol-1-yl)-phenyl]-8-methyl-1,3-dihydro-benzo[b][1,4]diazepin-2-one]"
12,234,"CN(C)c1cc2c(cc1C#N)NC(=O)CC(c1cccc(-n3nncc3CO)c1)=N2 [Example 95, 8-Dimethylamino-2-[3-(5-hydroxymethyl-[1,2,3]triazol-1-yl)-phenyl]-4-oxo-4,5-dihydro-3H-benzo[b][1,4]diazepine-7-carbonitrile]"
13,194,"CCCN(C)c1cc2c(cc1C)NC(=O)CC(c1cccc(-c3cc(C)no3)c1)=N2 [Example 97, 8-Methyl-4-[3-(3-methyl-isoxazol-5-yl)-phenyl]-7-(methyl-propyl-amino)-1,3-dihydro-benzo[b][1,4]diazepin-2-one]"
14,248,"Cc1cc(-c2cccc(C3=Nc4cc(N(C)C)c(C#N)cc4NC(=O)C3)c2)on1 [Example 98, 8-Dimethylamino-2-[3-(3-methyl-isoxazol-5-yl)-phenyl]-4-oxo-4,5-dihydro-3H-benzo[b][1,4]diazepine-7-carbonitrile]"
15,204,"Cc1cc(-c2cccc(C3=Nc4cc(N(C)C)c(C)cc4NC(=O)C3)c2)on1 [Example 100, 7-Dimethylamino-8-methyl-4-[3-(3-methyl-isoxazol-5-yl)-phenyl]-1,3-dihydro-benzo[b][1,4]diazepin-2-one]"
16,230,"CCCN(C)c1cc2c(cc1C(F)(F)F)NC(=O)CC(c1cccc(-n3nncc3CO)c1)=N2 [Example 115, 4-[3-(5-Hydroxymethyl-[1,2,3]triazol-1-yl)-phenyl]-7-(methyl-propyl-amino)-8-trifluoromethyl-1,3-dihydro-benzo[b][1,4]diazepin-2-one]"
17,193,"CCCN(C)c1cc2c(cc1C(F)(F)F)NC(=O)CC(c1cccc(-c3cc(C)no3)c1)=N2 [Example 116, 4-[3-(3-Methyl-isoxazol-5-yl)-phenyl]-7-(methyl-propyl-amino)-8-trifluoromethyl-1,3-dihydro-benzo[b][1,4]diazepin-2-one]"
18,195,"Cc1cc(-c2cccc(C3=Nc4cc(N(C)CC(C)C)c(C(F)(F)F)cc4NC(=O)C3)c2)on1 [Example 118, 7-(Isobutyl-methyl-amino)-4-[3-(3-methyl-isoxazol-5-yl)-phenyl]-8-trifluoromethyl-1,3-dihydro-benzo[b][1,4]diazepin-2-one]"
